Patent US8299119B2, “Biologically active compounds” (Bio-Active Export Pty. Ltd., priority 2005, dated 2012)
In brackets after ≈: the same amount, converted by molar mass.

Key:
[1] = tested on: prostaglandin E2 production in 3T3 Swiss Albino fibroblast cells; assay: Inhibition of prostaglandin E2 production in calcium ionophore stimulated cells; format: cell-based; design: Anti-inflammatory capacity, Average (PGE2 assay): unit: %; conditions: for dose response in PGE2 assay: over the concentration range tested; for IC50: range of concentrations, read-out: IC 50 values, Average (PGE2 assay)
Protocol: Samples were tested for their ability to inhibit prostaglandin E2 production in cells stimulated by a calcium ionophore, compared to stimulated cells not exposed to any sample. Inhibition was tested over a range of 3 concentrations, although a dose response was not observed for most samples. This is probably because the samples are very efficient at inhibiting PGE2 production and the range of concentrations used was too narrow. The data presented are the maximal inhibition of PGE2 observed for a given sample.
3T3 Swiss Albino fibroblast cell suspension (Phenol-red free DMEM with 10% FBS and 2 mM L-glutamine) was plated out into 96-well tissue culture plates (1×10^5 cells/mL, 100 μL/well). The cells were cultured overnight at 37° C., 5% CO2. […] Cells+samples were incubated (37° C., 3 hours), before the addition of calcium ionophore A23187. Following 20 min incubation, the plate was centrifuged (1000 g, 3 min) and the supernatants were removed. Included on the plate was a positive control (aspirin; 100 μM), and DMSO control, both with and without calcium ionophore A23187.
The supernatants were diluted by serial dilution (1:500) in enzyme immunoassay (EIA) buffer, and assayed for PGE2 using the Prostaglandin E2 EIA Monoclonal Kit (Cayman Chemical; Cat No. 514010), according to manufacturers' instructions.

[2] = ORAC (oxygen radical absorbance capacity) assay; conditions: for Antioxidant capacity (ORAC): pure compounds, Table 13; for ORAC value: Centipeda fractions, Table 7
Protocol: The antioxidant capacity of the Centipeda fractions was measured using the ORAC procedure (Oxygen Radical Absorbance Capacity). A water soluble analogue of vitamin E, Trolox, was used as a reference standard, and the ORAC value is expressed as μmol of trolox equivalence (TE) per gram of sample extract.
The ORAC assay employed in this study measured the antioxidant scavenging activity in the test samples, against peroxyl radicals induced by 2,2′-azobis(2-amidinopropane)dihydrochloride (AAPH) at 37° C. Fluorescein was used as the fluorescent probe. The method used is based on that of Huang et al.^1, Huang et al.^2 and Prior et al.^3 ^1 Huang et al., 2002. Journal of Agricultural and Food Chemistry 50(16): 1815-1821.^2 Huang et al., 2002. Journal of Agricultural and Food Chemistry 50(16): 4437-4444.^3 Prior et al., 2003. Journal of Agricultural and Food Chemistry 51(11): 3273-3279.
All samples were assayed using the hydrophilic ORAC procedure in serial dilution×4 with acetone:water:acetic acid; 70:29.5:0.5 (A:W:A,) and in quadruplicate, starting with the concentration relevant to the sample, depending on the approximated antioxidant capacity from an initial screen.
Trolox, a water soluble analogue of vitamin E, was used as a reference standard. A trolox standard curve was established from trolox standards prepared at 100, 50, 25, and 12.5 μM in A:W:A.
Briefly, 10 μL fluorescein (6.0×10^−7 M), 20 μL samples/standards/control/blank (A:W:A) and 170 μL […] (20 mM) were added per well. Immediately after loading, the plate was transferred to the plate reader preset to 37° C., and the fluorescence was measured 35 times at one minute intervals. The fluorescence readings were referenced to solvent blank wells. The final ORAC values were calculated using a regression equation between the Trolox concentration and the net area under the fluorescein decay curve, and where possible were expressed as Trolox equivalents (TE) as micromoles per gram of sample.

| SMILES | Anti-inflammatory capacity, Average (PGE2 assay) ([1]; 5.0 μg/mL) | dose response in PGE2 assay [1] | Antioxidant capacity (ORAC) [2] [TE/g extract] | IC50 ([1]; Fibroblast) [µg/mL] | inhibition at 125 µg/mL ([1]; Fibroblast, sample 0.125 mg/mL, maximal inhibition observed, read-out: % inhibition of PGE2 production ± SEM) [%] | ORAC value [2] | Anti-inflammatory capacity, Average (PGE2 assay) ([1]; 100 μM, positive control) | inhibition at 10 µM ([1]; Fibroblast, 0.01 mM, positive control, read-out: % inhibition of PGE2 production ± SEM) [%] | inhibition at 62.5 µg/mL ([1]; Fibroblast, sample 0.0625 mg/mL, maximal inhibition observed, read-out: % inhibition of PGE2 production ± SEM) [%] |
| --- | --- | --- | --- | --- | --- | --- | --- | --- | --- |
| COC(=O)/C(O)=C/C(OC(=O)/C=C/c1ccc(O)c(O)c1)C(OC(=O)/C=C/c1ccc(O)c(O)c1)C(O)C(=O)O (stereo not drawn) [Compound 9, 4ξ,5ξ-Di-O-caffeoyl-2,6ξ-dihydroxyhept-2-en-1,7-dioic acid-1-methyl ester] | 45.00 | did not exhibit a standard dose response type curve | 6822 | – | – | – | – | – | – |
| COC(=O)C(O)C(OC(=O)/C=C/c1ccc(O)c(O)c1)C(/C=C(\O)C(=O)O)OC(=O)/C=C/c1ccc(O)c(O)c1 (stereo not drawn) [Compound 8, 4ξ,5ξ-Di-O-caffeoyl-2,6ξ-dihydroxyhept-2-en-1,7-dioic acid-7-methyl ester] | 73.50 | – | 8122 | 4.73 (≈ 8.44 µM) | – | – | – | – | – |
| COc1c(O)cc2oc(-c3ccc(O)cc3O)c(OC3OC(CO)C(O)C(O)C3O)c(=O)c2c1O (single isomer, unassigned) [Compound 1, 2′,4′,5,7-tetrahydroxy-6-methoxyflavone-3-O-β-glucopyranoside] | 52.2 | – | 12178 | 1.47 (≈ 2.97 µM) | 67.8 ± 2.86 | 3871.9 μmol TE/g of extract | – | – | – |
| COC(=O)/C(O)=C/C(OC(=O)/C=C/c1ccc(O)c(O)c1)C(OC(=O)/C=C/c1ccc(O)c(O)c1)C(O)C(=O)OC (stereo not drawn) [Compound 10, 4ξ,5ξ-Di-O-caffeoyl-2,6ξ-dihydroxyhept-2-en-1,7-dioic acid-dimethyl ester] | 73.95 | did not exhibit a standard dose response type curve | 3957 | – | – | – | – | – | – |
| CC(=O)Oc1ccccc1C(=O)O [Aspirin, aspirin, reference compound] | – | – | – | – | – | – | 54.6 | 57.4 ± 14.4 | – |
| O=C(/C=C/c1ccc(O)c(O)c1)OC(/C=C(\O)C(=O)O)C(OC(=O)/C=C/c1ccc(O)c(O)c1)C(O)C(=O)O (single isomer, unassigned) [Compound 2, 4ξ,5ξ-Di-O-caffeoyl-2,6ξ-dihydroxyhept-2-en-1,7-dioic acid] | 67.38 | – | 13781 | 2.48 (≈ 4.54 µM) | – | 3415.1 μmol TE/g of extract | – | – | 74.5 ± 8.06 |
